In patent publication US8791102B2, “Acetanilide sphingosine-1-phosphate receptor antagonists” (Exelixis, Inc., priority 2008, dated 2014):
pIC50: −log10 of the molar value.

Biological target: T1, human S1P1 receptors (Homo sapiens, UniProt P21453)
T1 construct: host or cells: HEK293
Experiment: S1P1R antagonist assay (fluorescent membrane potential dye, cAMP readout)
Assay type: cell-based
Conditions: HEK293 cells expressing human S1P1 receptors and CNG channel; 500 nM NECA; S1P1R agonist 10 nM; 90 minutes; read-out: EC50 or IC50 value

T1 sequence (P21453 whole entry): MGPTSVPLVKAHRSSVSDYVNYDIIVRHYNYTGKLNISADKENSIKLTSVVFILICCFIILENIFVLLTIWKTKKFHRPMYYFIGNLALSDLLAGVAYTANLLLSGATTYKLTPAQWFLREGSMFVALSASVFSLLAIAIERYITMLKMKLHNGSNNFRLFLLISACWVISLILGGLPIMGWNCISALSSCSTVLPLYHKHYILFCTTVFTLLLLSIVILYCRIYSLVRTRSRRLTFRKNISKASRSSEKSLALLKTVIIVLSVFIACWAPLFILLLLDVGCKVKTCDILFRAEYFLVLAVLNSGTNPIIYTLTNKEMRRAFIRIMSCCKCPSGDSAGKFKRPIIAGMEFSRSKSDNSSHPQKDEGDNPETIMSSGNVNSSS

Row | Structure (SMILES) | pIC50
1 | Cc1ccoc1C(=O)NC(COCc1ccccc1)C(=O)Nc1ccc(Oc2ccccc2)cc1 (stereo not shown) [Compound 401, 3-methyl-N-(2-oxo-1{[(phenylmethyl)oxy]methyl}-2-{[4-(phenyloxy)phenyl]amino}ethyl)furan-2-carboxamide] | < 6.00
2 | O=C(Cc1cccc(Br)c1)NC(COCc1ccccc1)C(=O)Nc1ccc(Oc2ccccc2)cc1 (stereo not shown) [Compound 384, N-(2-oxo-1-{[(phenylmethyl)oxy]methyl}-2-{[4-(phenyloxy)phenyl]amino}ethyl)-2-(3-bromophenyl)acetamide] | < 6.00
3 | COc1ccc(OC)c(CC(=O)NC(COCc2ccccc2)C(=O)Nc2ccc(Oc3ccccc3)cc2)c1 (stereo not shown) [Compound 280, N-(2-oxo-1-{[(phenylmethyl)oxy]methyl}-2-{[4-(phenyloxy)phenyl]amino}ethyl)-2,5-dimethoxyphenylacetamide] | < 6.00
4 | O=C(CN1CCN(CC2CCCO2)CC1)N[C@@H](COCc1ccccc1)C(=O)Nc1ccc(Oc2ccc(F)cc2)cc1 (stereo partly drawn) [Compound 110, (2S)-3-(benzyloxy)-N-(4-(4-fluorophenoxy)phenyl)-2-(2-(4-((tetrahydrofuran-2-yl)methyl)piperazin-1-yl)acetamido)propanamide] | < 6.00
5 | Cc1cc(Oc2ccc(F)cc2)ccc1NC(=O)[C@H](COCc1ccccc1)NC(=O)Cc1cnc[nH]1 [Compound 47, (S)-2-(2-(1H-imidazol-5-yl)acetamido)-3-(benzyloxy)-N-(4-(4-fluorophenoxy)-2-methylphenyl)propanamide] | < 6.00
6 | COc1ccc(F)cc1C(=O)NC(COCc1ccccc1)C(=O)Nc1ccc(Oc2ccccc2)cc1 (stereo not shown) [Compound 308, 5-fluoro-2-(methyloxy)-N-(2-oxo-1-{[(phenylmethyl)oxy]methyl}-2-{[4-(phenyloxy)phenyl]amino}ethyl)benzamide] | < 6.00
7 | COc1ccc(OC)c(C(=O)NC(COCc2ccccc2)C(=O)Nc2ccc(Oc3ccccc3)cc2)c1 (stereo not shown) [Compound 332, 2,5-bis(methyloxy)-N-(2-oxo-1-{[(phenylmethyl)oxy]methyl}-2-{[4-(phenyloxy)phenyl]amino}ethyl)benzamide] | 6.00 to 6.52
8 | O=C(NC(COCc1ccccc1)C(=O)Nc1ccc(Oc2ccccc2)cc1)c1ccc(C(F)(F)F)cc1C(F)(F)F (stereo not shown) [Compound 362, N-(2-oxo-1-{[(phenylmethyl)oxy]methyl}-2-{[4-(phenyloxy)phenyl]amino}ethyl)-2,4-bis(trifluoromethyl)benzamide] | 6.00 to 6.52
9 | O=C(CCCc1ccccc1)NC(COCc1ccccc1)C(=O)Nc1ccc(Oc2ccccc2)cc1 (stereo not shown) [Compound 300, N-(2-oxo-1-{[(phenylmethyl)oxy]methyl}-2-{[4-(phenyloxy)phenyl]amino}ethyl)-4-phenylbutanamide] | < 6.00
10 | CN(CC(=O)NC(COCc1ccccc1)C(=O)Nc1ccc(Oc2ccccc2)cc1)C(=O)c1ccccc1 (stereo not shown) [Compound 340, N-(2-oxo-1-{[(phenylmethyl)oxy]methyl}-2-{[4-(phenyloxy)phenyl]amino}ethyl)-N-benzoyl-N-methylaminoacetamide] | 6.00 to 6.52
11 | CC(=O)CCC(=O)NC(COCc1ccccc1)C(=O)Nc1ccc(Oc2ccccc2)cc1 (stereo not shown) [Compound 347, 4-oxo-N-(2-oxo-1-{[(phenylmethyl)oxy]methyl}-2-{[4-(phenyloxy)phenyl]amino}ethyl)pentanamide] | < 6.00
12 | O=C(Nc1ccc(Oc2ccc(F)cc2)cc1)[C@@H]1C[C@@H](Cc2ccc(Cl)cc2)CN1C(=O)Cn1ccnn1 [Compound 228, (2S,4R)-1-(2-(1H-1,2,3-triazol-1-yl)acetyl)-4-(4-chlorobenzyl)-N-(4-(4-fluorophenoxy)phenyl)pyrrolidine-2-carboxamide] | ≥ 6.52
13 | Cc1ccccc1C[C@@H]1C[C@@H](C(=O)Nc2ccc(Oc3ccc(F)cc3)cc2)N(C(=O)Cn2nccn2)C1 [Compound 48, (2S,4R)-1-(2-(2H-1,2,3-triazol-2-yl)acetyl)-N-(4-(4-fluorophenoxy)phenyl)-4-(2-methylbenzyl)pyrrolidine-2-carboxamide] | ≥ 6.52
14 | O=C(CCl)N[C@@H](COCc1ccccc1)C(=O)Nc1ccc(Oc2ccc(F)cc2)cc1 [Compound 136, (S)-3-(benzyloxy)-2-(2-chloroacetamido)-N-(4-(4-fluorophenoxy)phenyl)propanamide] | ≥ 6.52
15 | O=C(CCC(=O)C1CC1)NC(COCc1ccccc1)C(=O)Nc1ccc(Oc2ccccc2)cc1 (stereo not shown) [Compound 186, N-(3-(benzyloxy)-1-oxo-1-(4-phenoxyphenylamino)propan-2-yl)-4-cyclopropyl-4-oxobutanamide] | 6.00 to 6.52
16 | O=C(NC(COCc1ccccc1)C(=O)Nc1ccc(Oc2ccccc2)cc1)c1ccccc1Cl (stereo not shown) [Compound 274, 2-chloro-N-(2-oxo-1-{[(phenylmethyl)oxy]methyl}-2-{[4-(phenyloxy)phenyl]amino}ethyl)benzamide] | < 6.00
17 | CC(=O)c1ccc(OCC(=O)NC(COCc2ccccc2)C(=O)Nc2ccc(Oc3ccccc3)cc2)cc1 (stereo not shown) [Compound 319, N-(2-oxo-1-{[(phenylmethyl)oxy]methyl}-2-{[4-(phenyloxy)phenyl]amino}ethyl)-4-acetylphenoxyacetamide] | < 6.00
18 | O=C(CSCc1ccccc1)NC(COCc1ccccc1)C(=O)Nc1ccc(Oc2ccccc2)cc1 (stereo not shown) [Compound 374, N-(2-oxo-1-{[(phenylmethyl)oxy]methyl}-2-{[4-(phenyloxy)phenyl]amino}ethyl)-2-(benzylthio)acetamide] | < 6.00
19 | O=C(NC(COCc1ccccc1)C(=O)Nc1ccc(Oc2ccccc2)cc1)c1cccnc1Oc1ccccc1 (stereo not shown) [Compound 290, N-(2-oxo-1-{[(phenylmethyl)oxy]methyl}-2-{[4-(phenyloxy)phenyl]amino}ethyl)-2-(phenyloxy)pyridine-3-carboxamide] | < 6.00

Continued, values first:

Row | pIC50 | Structure (SMILES)
20 | ≥ 6.52 | O=C(Nc1ccc(Oc2ccc(F)cc2)cc1)[C@@H]1C[C@@H](NCc2ccccc2)CN1C(=O)Cn1cncn1 [Compound 179, (2S,4R)-1-(2-(1H-1,2,4-triazol-1-yl)acetyl)-4-(benzylamino)-N-(4-(4-fluorophenoxy)phenyl)pyrrolidine-2-carboxamide]
21 | ≥ 6.52 | O=C(Nc1ccc(Oc2ccc(F)cc2)cc1)[C@@H]1C[C@@H](NCc2ccccc2)CN1C(=O)Cc1cnc[nH]1 [Compound 173, (2S,4R)-1-(2-(1H-imidazol-5-yl)acetyl)-4-(benzylamino)-N-(4-(4-fluorophenoxy)phenyl)pyrrolidine-2-carboxamide]
22 | ≥ 6.52 | Cc1ccc(C[C@@H]2C[C@@H](C(=O)Nc3ccc(Oc4ccc(F)cc4)cc3)N(C(=O)Cn3cncn3)C2)cc1 [Compound 4]
23 | ≥ 6.52 | COc1ccc([C@@H]2C[C@@H](C(=O)Nc3ccc(Oc4ccc(F)cc4)cc3)N(C(=O)Cn3cncn3)C2)cc1 [Compound 62, (2S,4S)-1-(2-(1H-1,2,4-triazol-1-yl)acetyl)-N-(4-(4-fluorophenoxy)phenyl)-4-(4-methoxyphenyl)pyrrolidine-2-carboxamide]
24 | ≥ 6.52 | O=C(Nc1ccc(Oc2ccc(F)cc2)cc1)[C@@H]1C[C@@H](Cc2cccc(F)c2)CN1C(=O)Cn1nccn1 [Compound 49, (2S,4R)-1-(2-(2H-1,2,3-triazol-2-yl)acetyl)-4-(3-fluorobenzyl)-N-(4-(4-fluorophenoxy)phenyl)pyrrolidine-2-carboxamide]
25 | ≥ 6.52 | Cc1cc(F)ccc1C[C@@H]1C[C@@H](C(=O)Nc2ccc(Oc3ccc(F)cc3)cc2)N(C(=O)Cn2cncn2)C1 [Compound 8, (2S,4R)-1-(2-(1H-1,2,4-triazol-1-yl)acetyl)-4-(4-fluoro-2-methylbenzyl)-N-(4-(4-fluorophenoxy)phenyl)pyrrolidine-2-carboxamide]
26 | ≥ 6.52 | O=C(Nc1ccc(Oc2ccc(F)cc2)cc1)[C@@H]1C[C@@H](Cc2ccccc2)CN1C(=O)[C@H](O)c1ccccc1 [Compound 40, (2S,4R)-4-benzyl-N-(4-(4-fluorophenoxy)phenyl)-1-((R)-2-hydroxy-2-phenylacetyl)pyrrolidine-2-carboxamide]
27 | ≥ 6.52 | O=C(Cc1cccnc1)N[C@@H](COCc1ccccc1)C(=O)Nc1ccc(Oc2ccc(F)cc2)cc1 [Compound 247, (S)-3-(benzyloxy)-N-(4-(4-fluorophenoxy)phenyl)-2-(2-(pyridin-3-yl)acetamido)propanamide]
28 | ≥ 6.52 | CSCC(=O)NC(COCc1ccccc1)C(=O)Nc1ccc(Oc2ccccc2)cc1 (stereo not shown) [Compound 307, N-(2-oxo-1-{[(phenylmethyl)oxy]methyl}-2-{[4-(phenyloxy)phenyl]amino}ethyl)-2-(methylthio)acetamide]
29 | ≥ 6.52 | O=C(Nc1ccc(Oc2ccc(F)cc2)cc1)[C@@H]1C[C@@H](Cc2ccccc2)CN1C(=O)CN1CCSCC1 [Compound 83, (2S,4R)-4-benzyl-N-(4-(4-fluorophenoxy)phenyl)-1-(2-thiomorpholinoacetyl)pyrrolidine-2-carboxamide]
30 | ≥ 6.52 | O=C(Cc1cnc[nH]1)N[C@@H](COCc1ccccc1)C(=O)Nc1ccc(Oc2cccc(Cl)c2)cc1 [Compound 148, (S)-2-(2-(1H-imidazol-4-yl)acetamido)-3-(benzyloxy)-N-(4-(3-chlorophenoxy)phenyl)propanamide]
31 | ≥ 6.52 | Cc1nccn1CC(=O)N[C@@H](COCc1ccccc1)C(=O)Nc1ccc(Oc2ccc(F)cc2)cc1 [Compound 160, (S)-3-(benzyloxy)-N-(4-(4-fluorophenoxy)phenyl)-2-(2-(2-methyl-1H-imidazol-1-yl)acetamido)propanamide]
32 | ≥ 6.52 | O=C(CC[N+](=O)[O-])N[C@@H](COCc1ccccc1)C(=O)Nc1ccc(Oc2ccc(F)cc2)cc1 [Compound 245, (S)-3-(benzyloxy)-N-(4-(4-fluorophenoxy)phenyl)-2-(3-nitropropanamido)propanamide]
33 | ≥ 6.52 | O=C(Nc1ccc(Oc2ccc(F)cc2)cc1)[C@@H]1C[C@@H](Cc2ccccc2)CN1C(=O)CN1C(=O)CSC1=S [Compound 99, (2S,4R)-4-benzyl-N-(4-(4-fluorophenoxy)phenyl)-1-(2-(4-oxo-2-thioxothiazolidin-3-yl)acetyl)pyrrolidine-2-carboxamide]
34 | ≥ 6.52 | O=C(CN1CCNCC1)N[C@@H](COCc1ccccc1)C(=O)Nc1ccc(Oc2ccc(F)cc2)cc1 [Compound 205, (S)-3-(benzyloxy)-N-(4-(4-fluorophenoxy)phenyl)-2-(2-(piperazin-1-yl)acetamido)propanamide]
